Assay results: patent US9078805B2, “Method for producing a drug delivery system on the basis of polyelectrolyte complexes” (LEIBNIZ-INSTITUT FUER POLYMER-FORSCHUNG DRESDEN E.V., priority 2010, dated 2015)

Assay: Release of the bisphosphonate and stability of the PEC carrier layer on a germanium model substrate, measured via spectroscopic methods
Assay type: physicochemical
Conditions: after 1 minute; layer applied and dried on the same germanium model substrate
Experimental: 50 microliter of this drug-loaded PEC dispersion was brushed onto an inorganic planar model substrate of germanium and dried in the drying oven at 50° C. The measurement of the release of the bisphosphonate and the stability of the PEC carrier layer was carried out via spectroscopic methods. After 24 hours a relative reduction of the bisphosphonate content of the PEC/drug layer of approximately 50% resulted. […] For a layer of the pure bisphosphonate applied and dried on the same model substrate as in the case of PEC/drug, after 1 minute an immediate detachment and thus a relative reduction of the bisphosphonate content of approximately 100% resulted.

- relative reduction of the bisphosphonate content (immediate detachment): approximately 100%
SMILES: NCCC(O)(P(=O)(O)O)P(=O)(O)O [pure bisphosphonate, pamidronate]
